What was measured:
[1] = molecular target: T1, N-type calcium channels (IMR-32 cells) (Homo sapiens, UniProt Q00975); experiment: N-type Ca2+ channel blocking in IMR-32 cells using the fluorescent Ca2+ indicator Indo-1; format: cell-based; conditions: 5 μM nitrendipine to block L-type channels, KCl depolarization, 30° C., read-out: Inhibition of Ca^+2 Influx in IMR-32 Cells IC50
T1 construct: host or cells: IMR-32 cells, differentiated with dibutyryl cAMP and bromodeoxyuridine
Experimental: Measurement of N-type Ca2+ Channel Blocking Potencies of Compounds in IMR-32 Cells Using the Fluorescent Ca2+ Indicator Indo-1 IMR-32 cells are a human tumoral cell line of neural origin. […] Calcium flux into these cells may be induced by stimulation with elevated potassium concentrations. The L-channel component of calcium flux may be blocked by adding 5 μM nitrendipine. The remaining component of calcium entry into the IMR-32 cells is due to calcium flux through N-type calcium channels. Intracellular calcium concentrations are measured using the fluorescent calcium indicator Indo-1. The effect of drug concentration on calcium uptake is studied. Methods The IMR-32 cell line was obtained from the American Type Culture Collection (Rockville, Md.). Cells were grown in Eagle's Minimum Essential Medium with Earle's salts supplemented with 10% fetal bovine serum, 2 mM L-Gln and antibiotic/antimicotic mixture (Gibco). At approximately 80% confluency, differentiation was induced by the addition of 1 mM dibutyryl cAMP and 2.5 μM bromodeoxyuridine to the medium. After 7 to 13 days of differentiation, cells were detached using 0.5 mM EDTA and loaded with five 5 μM Indo-1 acetoxymethyl ester (Molecular Probes, Eugene, Oreg.) at 30° C. for 45 minutes. Loaded cells were washed twice, resuspended (~10^7 cells/mL) in assay buffer (10 mM HEPES/Tris pH 7.4 in Hank's Balanced Salt Solution without bicarbonate or phenol red containing 0.5% bovine serum albumin) and kept on ice until use. Fluorescence measurements were carried out in a Photon Technology International (PTI, South Brunswick, N.J.) Model RF-[…] spectrofluorometer with dual emission monochromators using excitation at 350 nm and emission at 400 and 490 nm. The instrument was equipped with a thermostatted cuvette holder with stirring capabilities as well as with a computer-controlled pump which allowed for reagent addition during measurement. Instrument control and data collection was done by PTI's OSCAR software running on an IBM compatible computer. […] At 20 seconds after the start of reading, cells were depolarized by the addition of 160 μL of stimulation solution (1M KCl, 68 mM CaCl2) to the cuvette via the computer-controlled pump. Ratio of dual emission signals (400 nm/490 nm), which is proportional to intracellular Ca^2+ concentration, was plotted against time, and the difference between maximal response after stimulation and basal value (before stimulation) was determined. […] IC50 values of test compounds were calculated by fitting a four-parameter logistic function to the data using the least squares method.

ischemia and pain = conditions: Bowersox et al. 1994; cited from earlier work

T1 sequence (Q00975 whole entry): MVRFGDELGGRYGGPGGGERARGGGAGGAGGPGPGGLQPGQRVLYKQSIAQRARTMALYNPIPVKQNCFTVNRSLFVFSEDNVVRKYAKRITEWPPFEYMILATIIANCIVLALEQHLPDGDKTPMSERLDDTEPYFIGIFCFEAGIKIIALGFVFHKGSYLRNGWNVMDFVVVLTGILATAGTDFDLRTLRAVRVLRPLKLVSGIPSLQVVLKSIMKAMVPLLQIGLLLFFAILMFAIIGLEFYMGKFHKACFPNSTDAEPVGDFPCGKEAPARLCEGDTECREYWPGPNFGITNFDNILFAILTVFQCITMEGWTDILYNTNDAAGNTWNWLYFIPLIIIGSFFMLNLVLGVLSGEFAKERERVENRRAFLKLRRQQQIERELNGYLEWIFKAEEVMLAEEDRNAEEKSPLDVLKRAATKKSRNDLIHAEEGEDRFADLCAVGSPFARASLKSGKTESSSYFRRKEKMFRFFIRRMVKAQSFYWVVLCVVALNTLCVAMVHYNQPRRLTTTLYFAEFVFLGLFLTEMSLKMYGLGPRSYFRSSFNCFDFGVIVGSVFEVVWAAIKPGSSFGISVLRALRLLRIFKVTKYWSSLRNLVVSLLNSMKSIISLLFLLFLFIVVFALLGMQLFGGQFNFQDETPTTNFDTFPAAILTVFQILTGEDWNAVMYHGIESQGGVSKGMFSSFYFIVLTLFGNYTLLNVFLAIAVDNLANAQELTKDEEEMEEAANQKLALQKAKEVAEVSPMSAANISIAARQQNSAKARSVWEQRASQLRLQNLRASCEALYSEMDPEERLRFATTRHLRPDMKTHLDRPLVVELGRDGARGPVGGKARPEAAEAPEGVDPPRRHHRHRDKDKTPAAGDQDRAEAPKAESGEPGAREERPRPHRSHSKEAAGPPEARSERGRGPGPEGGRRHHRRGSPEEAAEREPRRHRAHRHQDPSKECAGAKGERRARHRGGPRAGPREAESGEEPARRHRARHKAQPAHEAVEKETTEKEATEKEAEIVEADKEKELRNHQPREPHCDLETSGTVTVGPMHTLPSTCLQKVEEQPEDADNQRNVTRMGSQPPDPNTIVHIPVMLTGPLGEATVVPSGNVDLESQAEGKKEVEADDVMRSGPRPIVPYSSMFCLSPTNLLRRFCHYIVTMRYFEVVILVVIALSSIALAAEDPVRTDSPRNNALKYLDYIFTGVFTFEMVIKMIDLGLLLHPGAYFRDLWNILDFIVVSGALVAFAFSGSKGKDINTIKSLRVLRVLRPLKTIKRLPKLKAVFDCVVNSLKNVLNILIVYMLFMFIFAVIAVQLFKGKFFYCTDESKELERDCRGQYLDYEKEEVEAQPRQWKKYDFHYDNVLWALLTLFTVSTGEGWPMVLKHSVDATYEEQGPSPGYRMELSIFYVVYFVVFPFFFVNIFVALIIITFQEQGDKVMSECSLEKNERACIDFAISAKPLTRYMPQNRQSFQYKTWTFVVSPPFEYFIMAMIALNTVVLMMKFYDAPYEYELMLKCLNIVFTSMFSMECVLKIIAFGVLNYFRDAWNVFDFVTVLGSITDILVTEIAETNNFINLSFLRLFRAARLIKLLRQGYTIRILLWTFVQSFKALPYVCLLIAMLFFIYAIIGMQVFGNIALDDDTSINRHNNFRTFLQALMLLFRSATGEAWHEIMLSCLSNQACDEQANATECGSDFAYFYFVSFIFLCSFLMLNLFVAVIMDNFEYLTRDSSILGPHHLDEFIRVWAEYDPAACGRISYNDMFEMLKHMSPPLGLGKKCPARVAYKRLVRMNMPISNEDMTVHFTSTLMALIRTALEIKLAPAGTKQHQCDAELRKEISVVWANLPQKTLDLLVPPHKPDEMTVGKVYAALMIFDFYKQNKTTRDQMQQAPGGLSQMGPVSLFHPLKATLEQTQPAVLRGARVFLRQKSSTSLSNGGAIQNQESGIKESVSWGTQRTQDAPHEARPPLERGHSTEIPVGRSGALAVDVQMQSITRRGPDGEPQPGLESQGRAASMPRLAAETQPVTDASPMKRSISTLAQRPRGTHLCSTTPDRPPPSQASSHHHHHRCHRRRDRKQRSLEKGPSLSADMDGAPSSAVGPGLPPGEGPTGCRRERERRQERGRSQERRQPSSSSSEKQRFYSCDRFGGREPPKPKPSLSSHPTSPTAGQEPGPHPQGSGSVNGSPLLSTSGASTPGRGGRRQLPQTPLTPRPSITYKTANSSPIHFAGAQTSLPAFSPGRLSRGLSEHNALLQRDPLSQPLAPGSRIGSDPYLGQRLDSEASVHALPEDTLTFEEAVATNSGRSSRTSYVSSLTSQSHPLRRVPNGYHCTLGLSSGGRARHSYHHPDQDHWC

SMILES | IC50 [1] [nM] | activity in models of ischemia and pain (in words) (ischemia and pain)
Oc1c(CN2CCCCCC2)ccc2c1CCN(CCCC(c1ccc(F)cc1)c1ccc(F)cc1)C2 [Example 11, 6-Azepan-1-ylmethyl-2-[4,4-bis-(4-fluorophenyl)-butyl]-1,2,3,4-tetrahydroisoquinolin-5-ol] | 1300 | 
CSCC[C@@H]1NC(=O)[C@H](CC(C)C)NC(=O)[C@H](CCCNC(=N)N)NC(=O)[C@H](CO)NC(=O)[C@@H]2CSSC[C@@H]3NC(=O)[C@H](CO)NC(=O)CNC(=O)[C@H]([C@@H](C)O)NC(=O)[C@H](CSSC[C@H](N)C(=O)N[C@@H](CCCCN)C(=O)NCC(=O)N[C@@H](CCCCN)C(=O)NCC(=O)N[C@@H](C)C(=O)N[C@@H](CCCCN)C(=O)N2)NC(=O)[C@H](CSSC[C@@H](C(N)=O)NC(=O)[C@H](CCCCN)NC(=O)CNC(=O)[C@H](CO)NC(=O)[C@H](CCCNC(=N)N)NC3=O)NC(=O)[C@H](CC(=O)O)NC(=O)[C@H](Cc2ccc(O)cc2)NC1=O [SNX-111] |  | demonstrated activity in a number of models of ischemia and pain

Continued by falling IC50 [1], values first:

IC50 [1] [nM] | SMILES | activity in models of ischemia and pain (in words) (ischemia and pain)
1100 | c1ccc(C(CCCN2CCc3c(ccc4c3OCN(C3CCCCC3)C4)C2)c2ccccc2)cc1 [Example 8, 2-Cyclohexyl-7-(4,4-diphenylbutyl)-2,3,5,6,7,8-hexahydro-1H-4-oxa-2,7-diazaphenanthrene] | 
1000 | Oc1c(CNC2CCCCC2)ccc2c1CCN(CCCC(c1ccccc1)c1ccccc1)C2 [Example 7, 6-Cyclohexylaminomethyl-2-(4,4-diphenylbutyl)-1,2,3,4-tetrahydroisoquinolin-5-ol] | 
820 | Oc1c(CN2CCCCCC2)ccc2c1CCN(CCCC(c1ccccc1)c1ccccc1)C2 [Example 6, 6-Azepan-1-ylmethyl-2-(4,4-diphenylbutyl)-1,2,3,4-tetrahydroisoquinolin-5-o] | 
